Legend:
[1] = system: PBMC from peanut allergic and non-allergic donors (IL-5 production); test: IL-5 ELISPOT with individual peptides after 14-day in vitro expansion (epitope mapping); format: cell-based, human; settings: SFC per 10^6 PBMC, individual peptide 10 μg/ml, 24 h, after 14-day culture; for IL-5 Average SFC (allergics): allergic donors; for IL-5 Average SFC (controls): non-allergic controls
Description: (§1) For in vitro expansions, PBMCs were thawed and cultured in RPMI 1640 (Omega Scientific, Tarzana, CA) supplemented with 5% human AB serum (Gemini Bio-Products, West Sacramento, CA) at a density of 2 × 10^6 cells per mL in 24-well plates (Corning, San Diego, CA) and stimulated with peanut extract (10 μg/ml) or peptide pools at 5 μg/mL. Cells were kept at 37°C, 5% CO2, and additional IL-2 (10 U/mL; ThermoFisher, San Diego, CA) was added every 3 days after initial antigenic stimulation. On day 14, cells were harvested and reactivity against peanut extract (10 μg/ml), peanut specific peptide pools (5 μg/ml) and individual peptides (10 μg/ml) was assessed. The production of IL-5 and IFNγ post-stimulation with peanut extract was analyzed in dual ELISPOT assays. Flat-bottom 96-well nitrocellulose plates (Millipore, Bedford, MA) were prepared according to the manufacturer’s instructions and coated with either 10 μg/ml of both anti-human IL-5 (clone TRFK5) and anti-human IFNγ (clone 1-D1K) or anti-human IL-10 (clone 9D7) and anti-human IL-17 (clone MT44.6) (Mabtech, Cincinnati, OH). PBMC were then incubated at a density of 1 × 10^5/well either with peptide pools (5 μg/ml) or individual peptides (10 μg/ml), peanut extract (10 μg/ml), PHA (10 μg/ml), or medium containing 0.25% DMSO (corresponding to the highest percentage of DMSO in the pools/peptides condition) as a control. After 24 h, cells were removed, and plates were incubated with a cocktail containing either biotinylated anti-human IL-5 (1:50 dilution) (clone 5A10) and horseradish peroxidase (HRP)-conjugated anti-human IFNγ (1:200 dilution) (clone 7-B6-1) or biotinylated anti-human IL-17 (1:200 dilution) (clone MT504) anti-human alkaline phosphatase (AP)-conjugated IL-10 (1:200 dilution) (clone 12G8) (Mabtech, Cincinnati, OH) at 37°C. After 2 h, spots corresponding to the biotinylated IL-5 Ab were developed by incubation with Alkaline-phosphatase-Complex (Vector Laboratories, Burlingame, CA) and then visualized by applying the Vector Blue Alkaline Phosphatase Substrate Kit III (Vector Laboratories, Burlingame, CA) according to the manufacturer’s instructions. Spots corresponding to the HRP-conjugated anti-human IFNγ Ab were visualized by incubation with 3-amino-9-ethylcarvazole solution (Sigma-Aldrich, St. Louis, MO). Spots were counted by computer-assisted image analysis (KS-ELISPOT reader, Zeiss, Munich). Each assay was performed in triplicate. The level of statistical significance was determined with a Student t test using the mean of triplicate values of the response against relevant pools or individual peptides versus the response against the DMSO control. Criteria for response positivity were 20 spot-forming cells (SFCs)/10^6 PBMC, p ≤ 0.05, and a stimulation index (SI) ≥ 2. SFCs are measured per 10^5 PBMC, subsequently readings are background subtracted and multiplied by 10 to be expressed as SFC per million PBMC. T cell epitope mapping was performed to determine epitopes from the major peanut allergens Ara h 1, 2 and 3, recognized by peanut allergic (n = 11) and non-allergic (n = 10) donors. As these studies were performed with samples obtained from pediatric patients, available blood sample volumes were limiting. To overcome this limitation, small pools of predicted peptides matched to the HLA molecules expressed in each donor were tested. For each donor, class II binding affinity predictions were performed using algorithms available through the IEDB (www.iedb.org)[18], to identify the top 6 predicted binders for each of the alleles expressed at the four HLA class II loci (DRB1, DRB3/4/5, DQB1, and DPB1). Accordingly, the screening load for each donor was reduced from 400 peptides to a maximum of 48 peptides (6 peptides x ≤8 class II molecules, less for homozygous donors). The six top predicted peptides for each allele were used to generate allele-specific pools, which were in turn used to expand peanut-specific cells in vitro. […]

[2] = system: PBMC from peanut allergic and non-allergic donors (IFNγ production); test: IFNγ ELISPOT with individual peptides after 14-day in vitro expansion (epitope mapping); format: cell-based, human; settings: SFC per 10^6 PBMC, individual peptide 10 μg/ml, 24 h, after 14-day culture; for IFNg Average SFC (allergics): allergic donors; for IFNg Average SFC (controls): non-allergic controls
Description: as §1

Sequence | IL-5 Average SFC (allergics) [1] [SFC] | IL-5 Average SFC (controls) [1] [SFC] | IFNg Average SFC (allergics) [2] [SFC] | IFNg Average SFC (controls) [2] [SFC]
SGFTPEFLAQAFQVD [Ara h 3 15-mer, position 266; P19 pool member] | 394 | 240 | 0 | 81
NTNAHSIIYALRGRA [Ara h 3 15-mer, position 416; P19 pool member] | 32 | 163 | 0 | 77
QSENYEYLAFKTDSR [Ara h 3 15-mer, position 441] | 0 | 419 | 0 | 95
MAKLLALSLCFCVLV [Ara h 3 15-mer, position 1] | 0 | 25 | 0 | 9
QRSKQFQNLQNHRIV [Ara h 1 15-mer, position 201; P19 pool member] | 0 | 171 | 0 | 65
QEFECAGVALSRLVL [Ara h 3 15-mer, position 61] | – | 138 | – | 0
NELNLLILRWLGLSA [Ara h 3 15-mer, position 386] | 0 | 607 | 0 | 0
DVFIMPAAHPVAINA [Ara h 1 15-mer, position 508] | – | 34 | – | 0
SGFAQEFLQHAFQVD [Ara h 3 15-mer, position 242] | 124 | 97 | 0 | 88
RSSENNEGVIVEVSK [Ara h 1 15-mer, position 356] | – | 40 | – | 0
TLNAHTIVVALNGRA [Ara h 3 15-mer, position 391] | 97 | 64 | 16 | 61
EQENEGSNIFSGFAQ [Ara h 3 15-mer, position 232] | 0 | 17 | 25 | 0
EYLAFKTDSRPSIAN [Ara h 3 15-mer, position 446; P19 pool member] | 307 | 50 | 0 | 270
RRFYLAGNQEQEFLR [Ara h 3 15-mer, position 196] | 0 | 750 | 0 | 90
SPLMLLLGILVLASV [Ara h 1 15-mer, position 6] | 0 | 30 | 0 | 0
QEFQCAGVALSRTVL [Ara h 3 15-mer, position 61] | – | 98 | – | 34
GRIRVLQRFDQRSRQ [Ara h 1 15-mer, position 191; P19 pool member] | 227 | 105 | 19 | 168

Sequence | IL-5 Average SFC (allergics) [1] [SFC] | IL-5 Average SFC (controls) [1] [SFC] | IFNg Average SFC (allergics) [2] [SFC] | IFNg Average SFC (controls) [2] [SFC]
QGRGYFGLIFPGCPS [Ara h 3 15-mer, position 96] | 0 | 43 | 0 | 0
EYVAFKTDSRPSIAN [Ara h 3 15-mer, position 471; P19 pool member] | 651 | 225 | 27 | 539
EQGAIVTVKGGLRIL [Ara h 3 15-mer, position 271] | 0 | 182 | 0 | 220
FCFLVLGASSISFRQ [Ara h 3 15-mer, position 11] | – | 25 | – | 0
LQDLDMMLTCVEIKE [Ara h 1 15-mer, position 426] | 0 | 403 | 0 | 158
SRLVLRRNALRRPFY [Ara h 3 15-mer, position 71; P19 pool member] | 27 | 941 | 19 | 341
QEFLQHAFQVDRQTV [Ara h 3 15-mer, position 246] | 57 | 2210 | 0 | 390
SRTVLRRNALRRPFY [Ara h 3 15-mer, position 71] | – | 647 | – | 377
QEFLRYQQQSRQSRR [Ara h 3 15-mer, position 206; P19 pool member] | 295 | 47 | 15 | 72
CMCEALQQIMENQSD [Ara h 2 15-mer, position 116] | – | 59 | – | 0
LILRWLGLSAEYGNL [Ara h 3 15-mer, position 391] | 53 | 1880 | 32 | 0
PHFNSKAMVIVVVNK [Ara h 1 15-mer, position 446] | 113 | 0 | 0 | 0
VTVKGGLRILSPDEE [Ara h 3 15-mer, position 276] | – | 653 | – | 433
PHFNSKAMVIVVINK [Ara h 1 15-mer, position 446] | 41 | 0 | 15 | 58
GSRPHYRQISPRVRG [Ara h 3 15-mer, position 216] | 203 | 287 | 0 | 57
RNNPFYFPSRRFSTR [Ara h 1 15-mer, position 171] | 100 | – | 0 | –
HVQVVDSNGNRVYDE [Ara h 3 15-mer, position 406; P19 pool member] | 385 | 0 | 0 | 240
